Reference: patent publication US20230069722A1, “TUBULYSINS AND PROTEIN-TUBULYSIN CONJUGATES” (priority 2020, published 2023)
Like-named read-outs stand apart in the source and are kept apart here.

Tested on: HCT15 cells
Test: MDR cell based killing assay, HCT15 cells with or without Verapamil (CellTiter-Glo)
Parameters: species or system human
Details: Homo sapiens
Method: To test the ability of the disclosed tubulysin payloads or prodrug payloads to kill human cell lines, an in vitro cytotoxicity assay can be performed. In vitro cytotoxicity of the disclosed payloads, as well as reference compounds, are evaluated using the CellTiter-Glo Assay Kit (Promega, Cat # G7573), in which the quantity of ATP present is used to determine the number of viable cells in culture. For the assay, C4-2, HEK293, or T47D cells are seeded at 4000 cells/well on Nunclon white 96-well plates in complete growth medium (DME high glucose:Ham's F12 at 4:1, 10% FBS, 100 units/ml Penicillin, 100 ug/ml streptomycin, 53 ug/ml glutatmine, 10 ug/ml insulin, 220 ng/ml biotin, 12.5 pg/ml T3, 12.5 ug/ml Adenine, 4 ug/ml transferrin for C42 cells; DME high glucose, 10% FBS, 100 units/ml Penicillin, 100 ug/ml streptomycin, 53 ug/ml glutatmine for HEK293; RPMI, 10% FBS, 100 units/ml Penicillin, 100 ug/ml streptomycin, 53 ug/ml glutatmine, 10 ug/ml insulin, 10 mM HEPEs, 200 nM Sodium Pyruvate for T47D cells) and grown overnight at 37° C. in 5% CO2. For cell viability curves, 1:3 serially diluted payloads are added to the cells at final concentrations ranging from 100 nM to 15 pM, including a no treatment control group, and are then incubated for 5 days. After the 5-day incubation, cells are incubated at room temperature with 100 μL of CellTiter-Glo reagents for 10 minutes. Relative luminescence units (RLU) can be determined on a Victor plate reader (PerkinElmer). The IC50 values are determined from a four-parameter logistic equation over a 10-point response curve (GraphPad Prism). All IC50 values are expressed in molar (M) concentration. The percent cell killing (% kill) at the maximum concentration tested is estimated from the following formula (100−% viable cells). Averages±standard deviation (SD) can be included where replicate experiments are performed.
In vitro cytotoxicity of the disclosed payloads as well as reference compounds are evaluated similarly as described above except using 1000 HCT15 cells, a colorectal carcinoma cell line, in growth medium (RPMI, 10% FBS, 100 units/ml Penicillin, 100 ug/ml streptomycin, 53 ug/ml glutatmine) with or without 5 ug/mL of Verapamil.
For each payload or prodrug payload, the HCT-15 IC50 in the absence of Verapamil is divided by the HCT-15 IC50 in the presence of Verapamil (HCT-15 IC50/HCT-15+Verapamil IC50). […] The reference compound, (MMAE), can have a ratio of 23.7. […]

[1] = HCT-15, read-out: HCT-15 with verapamil IC50

SMILES | IC50 (HCT-15, read-out: HCT-15 IC50) [nM] | IC50 [1] [nM]
CCCCCCN(C(=O)[C@@H](NC(=O)[C@H]1C[C@H](C)CCN1)[C@@H](C)CC)[C@H](C[C@@H](OCC)c1nc(C(=O)N[C@@H](Cc2ccc(N)cc2)CC(C)(C)C(=O)O)cs1)C(C)C [Compound P21, (4S)-5-(4-aminophenyl)-4-({2-[(1R,3R)-1-ethoxy-3-[(2S,3S)—N-hexyl-3-methyl-2-{[(2R,4R)-4-methylpiperidin-2-yl]formamido}pentanamido]-4-methylpentyl]-1,3-thiazol-4-yl}formamido)-2,2-dimethylpentanoic Acid] | 11.1 | 1.47
CCCCCCN(C(=O)[C@@H](NC(=O)[C@H]1CCCCN1)[C@@H](C)CC)[C@H](C[C@@H](OCC)c1nc(C(=O)N[C@@H](Cc2ccc(N)cc2)CC(C)(C)C(=O)O)cs1)C(C)C [Compound P20, (4S)-5-(4-aminophenyl)-4-({2-[(1R,3R)-1-ethoxy-3-[(2S,3S)—N-hexyl-3-methyl-2-[(2R)-piperidin-2-ylformamido]pentanamido]-4-methylpentyl]-1,3-thiazol-4-yl}formamido)-2,2-dimethylpentanoic Acid] | 6.97 | 0.52
C#CCCCON(C(=O)[C@@H](NC(=O)[C@H]1CCCCN1C)[C@@H](C)CC)[C@H](C[C@@H](OC(C)=O)c1nc(C(=O)N[C@@H](Cc2ccc(NC(=O)CNC(=O)CN)cc2)CC(C)(C)C(=O)O)cs1)C(C)C [Compound P39, (4S)-4-({2-[(1R,3R)-1-(acetyloxy)-4-methyl-3-[(2S,3S)-3-methyl-2-{[(2R)-1-methylpiperidin-2-yl]formamido}-N-(pent-4-yn-1-yloxy)pentanamido]pentyl]-1,3-thiazol-4-yl}formamido)-5-{4-[2-(2-aminoacetamido)acetamido]phenyl}-2,2-dimethylpentanoic Acid] | 0.62 | –
CCCCCCN(C(=O)[C@@H](NC(=O)[C@H]1CCCCN1C)[C@@H](C)CC)[C@H](C[C@@H](OC(C)=O)c1nc(C(=O)NS(=O)(=O)c2ccc(CN)cc2)cs1)C(C)C [Compound P42, (1R,3R)-1-(4-{[4-(aminomethyl)benzenesulfonyl]carbamoyl}-1,3-thiazol-2-yl)-3-[(2S,3S)—N-hexyl-3-methyl-2-{[(2R)-1-methylpiperidin-2-yl]formamido}pentanamido]-4-methylpentyl Acetate] | > 100 | 48.4
CCCCCCN(C(=O)[C@@H](NC(=O)[C@H]1CCCCN1C)[C@@H](C)CC)[C@H](C[C@@H](OC(C)=O)c1nc(C(=O)NS(=O)(=O)c2ccc(N)cc2)cs1)C(C)C [Compound P43, (1R,3R)-1-{4-[(4-aminobenzenesulfonyl)carbamoyl]-1,3-thiazol-2-yl}-3-[(2S,3S)—N-hexyl-3-methyl-2-{[(2R)-1-methylpiperidin-2-yl]formamido}pentanamido]-4-methylpentyl Acetate] | 4.99 | 1.42
CCCCCCN(C(=O)[C@@H](NC(=O)[C@H]1CCCCN1C)[C@@H](C)CC)[C@H](C[C@@H](OCC)c1nc(C(=O)NS(=O)(=O)Cc2ccc(N)cc2)cs1)C(C)C [Compound P45, N-[(4-aminophenyl)methanesulfonyl]-2-[(1R,3R)-1-ethoxy-3-[(2S,3S)—N-hexyl-3-methyl-2-{[(2R)-1-methylpiperidin-2-yl]formamido}pentanamido]-4-methylpentyl]-1,3-thiazole-4-carboxamide] | 75.7 | –
CCCCCCN(C(=O)[C@@H](NC(=O)[C@H]1CCCCN1C)[C@@H](C)CC)[C@H](C[C@@H](OC(C)=O)c1nc(C(=O)N[C@@H](Cc2ccc(F)cc2)CC(C)(C)C(=O)NS(=O)(=O)c2ccc(CN)cc2)cs1)C(C)C [Compound P46, (1R,3R)-1-(4-{[(2S)-4-{[4-(aminomethyl)benzenesulfonyl]carbamoyl}-1-(4-fluorophenyl)-4,4-dimethylbutan-2-yl]carbamoyl}-1,3-thiazol-2-yl)-3-[(2S,3S)—N-hexyl-3-methyl-2-{[(2R)-1-methylpiperidin-2-yl]formamido}pentanamido]-4-methylpentyl Acetate] | > 100 | –
CCCCCCN(C(=O)[C@@H](NC(=O)[C@H]1CCCCN1C)[C@@H](C)CC)[C@H](C[C@@H](OC(C)=O)c1nc(C(=O)NS(=O)(=O)Cc2ccc(N)cc2)cs1)C(C)C [Compound P44, (1R,3R)-1-(4-{[(4-aminophenyl)methanesulfonyl]carbamoyl}-1,3-thiazol-2-yl)-3-[(2S,3S)—N-hexyl-3-methyl-2-{[(2R)-1-methylpiperidin-2-yl]formamido}pentanamido]-4-methylpentyl Acetate] | 25.8 | –
CCCCCCN(C(=O)[C@@H](NC(=O)[C@H]1CCCCN1C)[C@@H](C)CC)[C@H](C[C@@H](OC(=O)NCCN)c1nc(C(=O)N[C@@H](Cc2ccc(N)c(F)c2)CC(C)(C)C(=O)O)cs1)C(C)C [Compound P5, (4S)-5-(4-amino-3-fluorophenyl)-4-({2-[(1R,3R)-1-{[(2-aminoethyl)carbamoyl]oxy}-3-[(2S,3S)—N-hexyl-3-methyl-2-{[(2R)-1-methylpiperidin-2-yl]formamido}pentanamido]-4-methylpentyl]-1,3-thiazol-4-yl}formamido)-2,2-dimethylpentanoic Acid] | 38.6 | 4.44
CCCCCCN(C(=O)[C@@H](NC(=O)[C@H]1CCCCN1C)[C@@H](C)CC)[C@H](C[C@@H](OCC)c1nc(C(=O)N[C@@H](Cc2ccc(N)cc2)CC(C)(C)C(=O)O)cs1)C(C)C [Compound P8, (4S)-5-(4-aminophenyl)-4-({2-[(1R,3R)-1-ethoxy-3-[(2S,3S)—N-hexyl-3-methyl-2-{[(2R)-1-methylpiperidin-2-yl]formamido}pentanamido]-4-methylpentyl]-1,3-thiazol-4-yl}formamido)-2,2-dimethylpentanoic Acid] | 0.24 | 0.06
CCCCCCN(C(=O)[C@@H](NC(=O)[C@H]1CCCCN1)[C@@H](C)CC)[C@H](C[C@@H](OC(C)=O)c1nc(C(=O)N[C@@H](Cc2ccc(N)c(F)c2)CC(C)(C)C(=O)O)cs1)C(C)C [Compound P12, (4S)-4-({2-[(1R,3R)-1-(acetyloxy)-3-[(2S,3S)—N-hexyl-3-methyl-2-[(2R)-piperidin-2-ylformamido]pentanamido]-4-methylpentyl]-1,3-thiazol-4-yl}formamido)-5-(4-amino-3-fluorophenyl)-2,2-dimethylpentanoic Acid] | 0.34 | 0.03
C#CCCCON(C(=O)[C@@H](NC(=O)[C@H]1CCCCN1C)[C@@H](C)CC)[C@H](C[C@@H](OC(C)=O)c1nc(C(=O)N[C@@H](Cc2ccc(NC(=O)[C@H](N)CCC(=O)O)cc2)CC(C)(C)C(=O)O)cs1)C(C)C [Compound P41, (4S)-4-({2-[(1R,3R)-1-(acetyloxy)-4-methyl-3-[(2S,3S)-3-methyl-2-{[(2R)-1-methylpiperidin-2-yl]formamido}-N-(pent-4-yn-1-yloxy)pentanamido]pentyl]-1,3-thiazol-4-yl}formamido)-5-{4-[(2R)-2-amino-4-carboxybutanamido]phenyl}-2,2-dimethylpentanoic Acid] | 82.7 | –
CCCCCCN(C(=O)[C@@H](NC(=O)[C@H]1CCCCN1)[C@@H](C)CC)[C@H](C[C@@H](OC(C)=O)c1nc(C(=O)N[C@@H](Cc2ccc(N)cc2)CC(C)(C)C(=O)O)cs1)C(C)C [Compound P18, (4S)-4-({2-[(1R,3R)-1-(acetyloxy)-3-[(2S,3S)—N-hexyl-3-methyl-2-[(2R)-piperidin-2-ylformamido]pentanamido]-4-methylpentyl]-1,3-thiazol-4-yl}formamido)-5-(4-aminophenyl)-2,2-dimethylpentanoic Acid] | 0.98 | 0.05
CCCCCCN(C(=O)[C@@H](NC(=O)[C@H]1C[C@H](C)CCN1)[C@@H](C)CC)[C@H](C[C@@H](OCC)c1nc(C(=O)N[C@@H](Cc2ccc(N)c(F)c2)CC(C)(C)C(=O)O)cs1)C(C)C [Compound P17, (4S)-5-(4-amino-3-fluorophenyl)-4-({2-[(1R,3R)-1-ethoxy-3-[(2S,3S)—N-hexyl-3-methyl-2-{[(2R,4R)-4-methylpiperidin-2-yl]formamido}pentanamido]-4-methylpentyl]-1,3-thiazol-4-yl}formamido)-2,2-dimethylpentanoic Acid] | 5.17 | 0.67
